# Test results as given in patent publication US12018016B2, “Aryl sulfonyl (hydroxy) piperidines as CCR6 inhibitors” (CHEMOCENTRYX, INC., priority 2021, dated 2024).
# Target: T1, human CCR6 (Homo sapiens, UniProt P51684)
# T1 construct: expressed in transfected cells; host or cells: Ba/F3 cells (mouse pro-B line)
# T1 sequence (P51684 1-374): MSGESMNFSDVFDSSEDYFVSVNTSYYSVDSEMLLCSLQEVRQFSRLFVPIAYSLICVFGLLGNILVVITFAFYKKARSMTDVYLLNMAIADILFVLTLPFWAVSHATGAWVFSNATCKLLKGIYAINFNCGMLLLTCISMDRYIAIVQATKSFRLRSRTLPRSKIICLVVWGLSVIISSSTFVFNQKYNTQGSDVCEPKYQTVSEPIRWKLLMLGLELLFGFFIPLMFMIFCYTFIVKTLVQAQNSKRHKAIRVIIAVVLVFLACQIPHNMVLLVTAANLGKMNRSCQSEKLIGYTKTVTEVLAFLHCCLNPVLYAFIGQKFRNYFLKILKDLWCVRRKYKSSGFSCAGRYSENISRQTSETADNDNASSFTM
# Assay: Migration assay (chemotaxis, ChemoTX)
# Format: cell-based
# Conditions: hCCR6-transfected Ba/F3 cells in human serum, migration to recombinant human CCL20 10 nM, 37° C. 45 minutes; read-out: Potency (IC50 value in the migration assay)
# In short: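 Ba/F3 cells transfected with human CCR6 and butyrate-primed for 24 h were suspended at 4 million/ml in human serum with compound, serially diluted from a 1 μM final top concentration. Cells migrated through a 5-μm polycarbonate membrane toward 10 nM human CCL20 for 45 min at 37 °C. Migrated cells were quantified by CyQUANT fluorescence.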
row,IC50 [nM],SMILES
1,< 1,"O=C1NCCc2ccc(-c3ccc(S(=O)(=O)N4CC[C@@H](Nc5ccc(C(F)(F)F)cn5)[C@@H](O)C4)cc3)cc21 [Example 3, 7-(4-(((3S,4R)-3-hydroxy-4-((5-(trifluoromethyl)pyridin-2-yl)amino)piperidin-1-yl)sulfonyl)phenyl)-3,4-dihydroisoquinolin-1(2H)-one]"
2,1 to 10,CN(C)c1cc(-c2ccc(S(=O)(=O)N3CC[C@@H](Nc4ccc(C(F)(F)F)cn4)[C@@H](O)C3)cc2)ccn1 [Compound 124]
3,< 1,CN1CC2(C1)CN(c1ccc(-c3ccc(S(=O)(=O)N4CC[C@@H](Nc5ccc(C(F)(F)F)cn5)[C@@H](O)C4)cc3)cn1)C2 [Compound 99]
4,1 to 10,Nc1cc(-c2ccc(S(=O)(=O)N3CC[C@@H](Nc4ccc(C(F)(F)F)cn4)[C@@H](O)C3)cc2)ccn1 [Compound 126]
5,< 1,O=C1Nc2ncc(-c3ccc(S(=O)(=O)N4CC[C@@H](Nc5ccc(C(F)(F)F)cn5)[C@@H](O)C4)cc3)cc2C12CCC2 [Compound 159]
6,< 1,CC(C)(O)C1CN(c2cc(-c3ccc(S(=O)(=O)N4CC[C@@H](Nc5ccc(C(F)(F)F)cn5)[C@@H](O)C4)cc3)ccn2)C1 [Compound 132]
7,< 1,CNC(=O)N1Cc2cc(-c3ccc(S(=O)(=O)N4CC[C@@H](Nc5ccc(C(F)(F)F)cn5)[C@@H](O)C4)cc3)cc(C)c2C1 [Compound 188]
8,< 1,"COc1cc(-c2ccc(S(=O)(=O)N3CC[C@@H](Nc4ccc(C(F)(F)F)cn4)[C@@H](O)C3)cc2)cc2cn[nH]c12 [Example 21, (3S,4R)-1-((4-(7-methoxy-1H-indazol-5-yl)phenyl)sulfonyl)-4-((5-(trifluoromethyl)pyridin-2-yl)amino)piperidin-3-ol]"
9,< 1,O=C1CN(c2ccc(-c3ccc(S(=O)(=O)N4CC[C@@H](Nc5ccc(C(F)(F)F)cn5)[C@@H](O)C4)cc3)cn2)CCN1 [Compound 178]
10,< 1,"Cc1cnc(C(N)=O)cc1-c1ccc(S(=O)(=O)N2CC[C@@H](Nc3ccc(C(F)(F)F)cn3)[C@@H](O)C2)cc1 [Example 20, 4-(4-(((3S,4R)-3-Hydroxy-4-((5-(trifluoromethyl)pyridin-2-yl)amino)piperidin-1-yl)sulfonyl)phenyl)-5-methylpicolinamide]"
11,1 to 10,Cc1cnc(CO)c(C)c1-c1ccc(S(=O)(=O)N2CC[C@@H](Nc3ccc(C(F)(F)F)cn3)[C@@H](O)C2)cc1 [Compound 205]
12,< 1,O=S(=O)(c1ccc(-c2cnc3[nH]ccc3c2Cl)cc1)N1CC[C@@H](Nc2ccc(C(F)(F)F)cn2)[C@@H](O)C1 [Compound 209]
13,< 1,"Nc1nnc(-c2cc(-c3ccc(S(=O)(=O)N4CC[C@@H](Nc5ccc(C(F)(F)F)cn5)[C@@H](O)C4)cc3)ccn2)o1 [Compound 69, (3S,4R)-1-((4-(2-(5-amino-1,3,4-oxadiazol-2-yl)pyridin-4-yl)phenyl)sulfonyl)-4-((5-(trifluoromethyl)pyridin-2-yl)amino)piperidin-3-ol]"
14,< 1,"Cc1cc(-c2ccc(S(=O)(=O)N3CC[C@@H](Nc4ccc(C(F)(F)F)cn4)[C@@H](O)C3)cc2)cc2c(C#N)n[nH]c12 [Example 43, 5-(4-(((3S,4R)-3-hydroxy-4-((5-(trifluoromethyl)pyridin-2-yl)amino)piperidin-1-yl)sulfonyl)phenyl)-7-methyl-1H-indazole-3-carbonitrile]"
15,< 1,Cc1cc(C(N)=O)ncc1-c1ccc(S(=O)(=O)N2CC[C@@H](Nc3ccc(C(F)(F)F)cn3)[C@@H](O)C2)cc1 [Compound 147]
16,< 1,"O=S(=O)(c1ccc(-c2ccnc(-c3nnco3)c2)cc1)N1CC[C@@H](Nc2ccc(C(F)(F)F)cn2)[C@@H](O)C1 [Compound 68, (3S,4R)-1-((4-(2-(1,3,4-oxadiazol-2-yl)pyridin-4-yl)phenyl)sulfonyl)-4-((5-(trifluoromethyl)pyridin-2-yl)amino)piperidin-3-ol]"
